Peptide text beside a SMILES is read from it. * marks the point of attachment. X1 = C=CC(=O)NCCCCC(NC(=O)OCc1ccccc1)C(=O)N1CCN(C(=O)C(CCC(=O)*)NC(=O)c2cccc3ccccc23)CC1
Key:
[1] = molecular target: T1, TG6 (Homo sapiens, UniProt O95932); assay: TGase isozyme selectivity, TG6 with AL5 substrate; type: biochemical; conditions: [I]/α identical to that of the TG2 assay
T1 construct: purchased Zedira GmbH (Darmstadt, Germany)
T1 sequence (O95932 1-706): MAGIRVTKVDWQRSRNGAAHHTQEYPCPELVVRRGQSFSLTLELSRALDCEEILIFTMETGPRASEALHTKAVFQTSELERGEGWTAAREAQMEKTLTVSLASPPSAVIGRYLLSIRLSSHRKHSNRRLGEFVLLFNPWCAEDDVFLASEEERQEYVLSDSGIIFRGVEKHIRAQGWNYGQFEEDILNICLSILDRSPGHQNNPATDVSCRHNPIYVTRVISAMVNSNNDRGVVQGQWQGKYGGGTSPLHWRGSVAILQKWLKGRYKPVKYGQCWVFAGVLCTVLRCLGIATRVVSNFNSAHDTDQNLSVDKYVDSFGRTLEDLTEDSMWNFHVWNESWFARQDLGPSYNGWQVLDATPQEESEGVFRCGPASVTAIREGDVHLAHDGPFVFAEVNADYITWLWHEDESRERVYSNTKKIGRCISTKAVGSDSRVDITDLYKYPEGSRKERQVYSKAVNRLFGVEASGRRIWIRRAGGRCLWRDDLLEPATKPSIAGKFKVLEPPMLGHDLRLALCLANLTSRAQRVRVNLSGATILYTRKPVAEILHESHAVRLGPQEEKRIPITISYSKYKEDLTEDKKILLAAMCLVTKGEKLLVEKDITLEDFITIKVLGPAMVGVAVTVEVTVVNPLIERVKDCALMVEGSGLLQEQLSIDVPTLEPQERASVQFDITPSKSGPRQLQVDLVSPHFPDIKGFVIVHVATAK
Text: (§1) In the development of probes for TGases, isozyme selectivity is always a significant challenge. Since the catalytic machinery of the active sites of all TGases features a conserved Gly-Gln-Cys-Trp-Val sequence, selectivity for one isozyme over the others requires exploitation of slight differences in the protein substrate binding sites. In order to assess the isozyme selectivity of our cell-impermeable inhibitors, TG2 and four other therapeutically relevant TGases (Factor XIII, TG1, TG3, and TG6) were exposed to a concentration of inhibitor representing the same apparent competition with respect to the assay substrate (AL5 [38] or A101 [42, 43]). In other words, both the substrate and inhibitor concentrations were varied so that the [I]/α values were identical. […] This provides confidence that in further applications, these cell-impermeable inhibitors will selectively target TG2 over other transglutaminases.
[…] In brief, 125 µL assay buffer #1 (containing TRIS, CaCl2, and NaCl pH 7.5), 18 µL assay buffer #2 (containing TCEP and acceptor substrate H-Gly-OMe pH 7.5), and a respective concentration of inhibitor aqueous working stock balanced with various volumes of water were combined in a 96-well black plate with clear bottom/top. […] The isopeptidase activity of the respective TGase was then monitored at Ex/Em = 313/418 nm with a BioTek Synergy 4 plate reader at 25 °C. […]

[2] = molecular target: T2, FXIIIa (Homo sapiens, UniProt P00488); assay: TGase isozyme selectivity, FXIIIa with A101 substrate; type: biochemical; conditions: [I]/α identical to that of the TG2 assay
T2 construct: purchased Zedira GmbH (Darmstadt, Germany)
T2 sequence (P00488 39-732 limits assumed): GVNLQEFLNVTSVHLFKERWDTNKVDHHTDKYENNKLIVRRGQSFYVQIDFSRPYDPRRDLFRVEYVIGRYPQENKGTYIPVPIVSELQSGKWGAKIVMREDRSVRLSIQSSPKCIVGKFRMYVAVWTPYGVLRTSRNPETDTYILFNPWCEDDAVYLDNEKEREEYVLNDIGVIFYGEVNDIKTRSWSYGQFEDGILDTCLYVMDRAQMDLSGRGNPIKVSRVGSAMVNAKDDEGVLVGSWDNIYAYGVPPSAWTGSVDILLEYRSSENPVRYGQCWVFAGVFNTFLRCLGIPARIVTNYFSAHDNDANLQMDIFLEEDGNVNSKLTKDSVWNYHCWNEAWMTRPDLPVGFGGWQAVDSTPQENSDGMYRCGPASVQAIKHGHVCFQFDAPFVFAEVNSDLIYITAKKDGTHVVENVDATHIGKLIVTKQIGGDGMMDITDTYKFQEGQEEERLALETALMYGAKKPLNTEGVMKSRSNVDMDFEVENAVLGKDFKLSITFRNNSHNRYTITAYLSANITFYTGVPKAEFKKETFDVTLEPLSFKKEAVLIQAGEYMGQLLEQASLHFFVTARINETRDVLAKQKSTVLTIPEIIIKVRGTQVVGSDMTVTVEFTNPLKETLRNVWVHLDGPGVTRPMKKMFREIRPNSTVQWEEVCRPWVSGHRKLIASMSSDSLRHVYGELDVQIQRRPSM
Text: as §1
To monitor the activity of TG3a and TG6, a FRET-quenched substrate A101 (Zedira Gmbh) was used. […] The isopeptidase activity of the respective TGase was then monitored at Ex/Em = 313/418 nm with a BioTek Synergy 4 plate reader at 25 °C. […]

[3] = Log D; type: physicochemical
Text: Table 2 Representative pharmacokinetic properties for cell-impermeable inhibitors 17 and 18. | column: 17; 18 (NCEG2)

[4] = MDCK cell permeability assay; type: in vitro ADME; conditions: dog, without Pgp inhibitor
[5] = tested on: P-gp; assay: MDCK cell permeability assay; type: in vitro ADME; conditions: dog, without Pgp inhibitor

Structure (SMILES) | inhibition of TG6 [1] | inhibition of Factor XIII [2] | logD [3] | Papp A→B [4] | Papp B→A [4] | efflux ratio [5]
C=CC(=O)NCCCCC(NC(=O)OCc1ccccc1)C(=O)N1CCN(C(=O)C(CCC(=O)NCC(=O)NCC(=O)NCC(=O)NC(CC(=O)O)C(=O)NC(CC(=O)O)C(=O)NC(CC(=O)O)C(=O)O)NC(=O)c2cccc3ccccc23)CC1 (stereo not drawn) [Compound 18] (X1-GGGDDD-OH; configuration not given here) | no detectable inhibition | no detectable inhibition | < -2.63 | 0.47 ×10⁻⁶ cm/s | 0.56 ×10⁻⁶ cm/s | 1.18
C=CC(=O)NCCCCC(NC(=O)OCc1ccccc1)C(=O)N1CCN(C(=O)C(CCC(=O)NCCCCCC(=O)NC(CC(=O)O)C(=O)NC(CC(=O)O)C(=O)NC(CC(=O)O)C(=O)O)NC(=O)c2cccc3ccccc23)CC1 (stereo not drawn) [Compound 17] | no detectable inhibition | no detectable inhibition | < -2.73 | 0.31 ×10⁻⁶ cm/s | 0.42 ×10⁻⁶ cm/s | 1.39

Source: article PMC10454375, “Cell-Impermeable Inhibitors Confirm That Intracellular Human Transglutaminase 2 Is Responsible for the Transglutaminase-Associated Cancer Phenotype” (International Journal of Molecular Sciences, 2023)
